Reference: paper doi:10.1101/2022.04.14.488411v1 (biorxiv, 2022)
Where two headings read alike, the source gives them in different places.

Tests used:
RPMI 8226 [1] = assay: cells; conditions: Homo sapiens, RPMI-8226, 72 h, read-out: IC50 (uM)
ABCG2 [2] = assay: cells; conditions: Homo sapiens, RPMI-8226, 72 h, read-out: IC50 (uM)
RPMI 8226 [3] = assay: cells; conditions: Homo sapiens, RPMI-8226, 72 h, read-out: IC50 (uM); remark: listed apart in the source
RPMI 8226 [4] = assay: cells; conditions: Homo sapiens, RPMI-8226, 72 h, read-out: IC50 (uM); remark: listed apart in the source
ABCG2 [5] = biological target: T1, ABCG2 (Homo sapiens, UniProt Q9UNQ0); assay: potentiation of TAK-243 cytotoxicity, Resazurin viability; type: cell-based
T1 sequence (Q9UNQ0 1-655): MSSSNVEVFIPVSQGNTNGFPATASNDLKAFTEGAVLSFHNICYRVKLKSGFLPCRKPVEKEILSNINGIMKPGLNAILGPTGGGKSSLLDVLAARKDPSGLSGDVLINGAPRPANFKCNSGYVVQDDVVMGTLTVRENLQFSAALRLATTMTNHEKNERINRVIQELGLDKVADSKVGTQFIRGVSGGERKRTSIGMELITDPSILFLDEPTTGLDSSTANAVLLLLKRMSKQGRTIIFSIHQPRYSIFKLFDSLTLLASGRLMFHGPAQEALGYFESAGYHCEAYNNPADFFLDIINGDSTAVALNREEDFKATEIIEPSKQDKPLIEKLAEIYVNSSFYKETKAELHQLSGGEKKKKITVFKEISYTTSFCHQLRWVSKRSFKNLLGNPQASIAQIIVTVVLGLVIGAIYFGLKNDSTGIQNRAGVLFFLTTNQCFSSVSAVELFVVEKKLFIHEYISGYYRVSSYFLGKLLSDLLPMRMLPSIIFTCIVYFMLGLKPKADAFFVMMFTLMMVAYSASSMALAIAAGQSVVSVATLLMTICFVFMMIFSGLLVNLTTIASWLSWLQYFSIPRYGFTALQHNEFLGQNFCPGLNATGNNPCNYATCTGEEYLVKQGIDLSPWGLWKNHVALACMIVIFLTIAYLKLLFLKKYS

RPMI 8226 [6] = assay: cells; design: species or system KMS11; conditions: Homo sapiens, RPMI-8226, 72 h, read-out: IC50 (nM), TAK-243 alone
MDAY-D2 = assay: cells; conditions: Mus musculus, MDAY-D2, 72 h, read-out: IC50 (nM)
OCI-M2 = assay: cells; conditions: OCI-M2, 72 h, read-out: IC50 (nM)
A549 = assay: cells; conditions: Homo sapiens, A549, 72 h, read-out: IC50 (nM)
U937 = assay: cells; conditions: Homo sapiens, U-937, 72 h, read-out: IC50 (nM)
MV4-11 = assay: cells; conditions: Homo sapiens, MV4-11, 72 h, read-out: IC50 (nM)
NB4 = assay: cells; conditions: Homo sapiens, NB-4, 72 h, read-out: IC50 (nM)
Jurkat = assay: cells; conditions: Homo sapiens, Jurkat, 72 h, read-out: IC50 (nM)
K562 = assay: cells; conditions: Homo sapiens, K562, 72 h, read-out: IC50 (nM)
OCI-AML2 = assay: cells; conditions: Homo sapiens, OCI-AML2, 72 h, read-out: IC50 (nM)
HEK293 = assay: cells; conditions: Homo sapiens, HEK293, 72 h, read-out: IC50 (nM)
MCF7 = assay: cells; conditions: Homo sapiens, MCF7, 72 h, read-out: IC50 (nM)
HepG2 = assay: cells; conditions: Homo sapiens, HepG2, 72 h, read-out: IC50 (nM)
KMS11 = assay: cells; design: species or system RPMI 8226; conditions: Homo sapiens, KMS-11, 72 h, read-out: IC50 (nM)
RPMI 8226 [7] = assay: cells; conditions: Homo sapiens, RPMI-8226, 72 h, read-out: IC50 (nM)
RPMI 8226 [8] = assay: cells; design: species or system KMS11; conditions: Homo sapiens, RPMI-8226, 72 h, read-out: IC50 (nM), TAK-243 alone; remark: listed apart in the source

COc1c(C)cc(NC(=O)c2nn(Cc3ccc(F)cc3)c3c2CN(C(=O)c2ccc[nH]2)C[C@]3(C)C(N)=O)cc1C [GSK-864]
IC50 (RPMI 8226 [1]): > 10 µM

N#Cc1ccnc(N2C(=O)CC[C@H]2C(=O)N(c2cncc(F)c2)[C@H](C(=O)NC2CC(F)(F)C2)c2ccccc2Cl)c1 [Ivosidenib]
IC50 (ABCG2 [2]): > 10 µM
IC50 (RPMI 8226 [3]): > 10 µM

CCCc1cc(C)[nH]c(=O)c1CNC(=O)c1cc(-c2ccc(N3CCN(C(C)C)CC3)nc2)cc2c1cnn2C(C)C [UNC1999]
IC50 (RPMI 8226 [1]): > 10 µM

NS(=O)(=O)OC[C@@H]1C[C@@H](n2ccc3c(N[C@H]4CCc5ccccc54)ncnc32)C[C@@H]1O [Pevo, pevonedistat]
IC50 (RPMI 8226 [4]): 0.997 µM

Clc1cc2c(NC3CCCC3)nnc(-c3ccncc3)c2cc1Cl [A-196]
IC50 (RPMI 8226 [1]): > 10 µM
apparent IC50 (ABCG2 [5]): 521.8 nM

COc1cc(-c2cn(C)c(=O)c3cnccc23)c(OC)cc1CN(C)C [BI-9564]
IC50 (ABCG2 [2]): > 10 µM
IC50 (RPMI 8226 [3]): > 10 µM

NS(=O)(=O)OC[C@H]1C[C@@H](Nc2ccnc3cc(-c4cccc(SC(F)(F)F)c4)nn23)[C@H](O)[C@@H]1O [TAK-243]
IC50 (RPMI 8226 [6]): 578 nM
IC50 (MDAY-D2): 1230 nM
IC50 (OCI-M2): 44 nM
IC50 (A549): 1290 nM
IC50 (U937): 17.9 nM
IC50 (MV4-11): 19.4 nM
IC50 (NB4): 10.1 nM
IC50 (Jurkat): 12.2 nM
IC50 (K562): 6.43 nM
IC50 (OCI-AML2): 27.1 nM
IC50 (HEK293): 177 nM
IC50 (MCF7): 404 nM
IC50 (HepG2): 60.1 nM
IC50 (KMS11): 685 nM
IC50 (RPMI 8226 [7]): 1370 nM
IC50 (RPMI 8226 [8]): 558 nM

COc1ccc(CCc2nc3cc(-c4c(C)noc4C)ccc3n2C[C@H](C)N2CCOCC2)cc1Cl [SGC-CBP30]
IC50 (RPMI 8226 [1]): > 10 µM

CO[C@H]1CC[C@H](n2c([C@@H]3CCCC(=O)N3c3ccc(F)c(F)c3)nc3cc(-c4c(C)noc4C)ccc32)CC1 [Inobrodib]
IC50 (RPMI 8226 [3]): 7.62 µM

O=C1c2c(O)ccc(O)c2C(=O)c2c(NCCNCCO)ccc(NCCNCCO)c21 [MTX, mitoxantrone]
IC50 (RPMI 8226 [4]): 0.0786 µM

COc1ccccc1C(=O)Nc1cc2c(cc1N1CCCC1)n(C)c(=O)n2C [PFI-4]
IC50 (RPMI 8226 [1]): > 10 µM
